Assay results reported in the NIST ThermoML archive (doi:10.1016/j.tca.2012.12.008).

Assay: xn = mol fraction of the nth substance listed
Settings: 101 kPa, Liquid; for viscosity: Capillary tube (Ostwald / Ubbelohde) method; for mass density: Vibrating tube method

CCC(C)=O [butanone] + CC(C)O
Settings	mass density, 298.15 K [kg/m3]	mass density, 303.15 K [kg/m3]	mass density, 308.15 K [kg/m3]	mass density, 313.15 K [kg/m3]	viscosity, 298.15 K [mPa·s]	viscosity, 303.15 K [mPa·s]	viscosity, 308.15 K [mPa·s]	viscosity, 313.15 K [mPa·s]
x1 = 0.0819	782.25	777.85	772.94	768.48	1.657	1.503	1.371	1.245
x1 = 0.1607	783.38	778.97	774.09	769.53	1.358	1.286	1.208	1.139
x1 = 0.24	784.62	780.11	775.17	770.66	1.142	1.11	1.077	1.041
x1 = 0.349	786.42	781.79	776.85	772.33	0.939	0.924	0.909	0.895
x1 = 0.4405	788.05	783.31	778.38	773.86	0.818	0.807	0.795	0.784
x1 = 0.5593	790.28	785.48	780.55	776.07	0.702	0.686	0.669	0.654
x1 = 0.6511	792.07	787.24	782.38	777.9	0.626	0.607	0.587	0.569
x1 = 0.7392	793.87	789.03	784.21	779.74	0.551	0.539	0.527	0.515
x1 = 0.8496	796.19	791.36	786.58	782.16	0.465	0.456	0.448	0.44
x1 = 0.937	798.09	793.22	788.46	784.11	0.417	0.406	0.396	0.386
x1 = 1	799.48	794.63	789.9	785.52	0.381	0.368	0.352	0.339

CCC(C)=O [butanone] + CCC(C)O
Settings	mass density, 298.15 K [kg/m3]	mass density, 303.15 K [kg/m3]	mass density, 308.15 K [kg/m3]	mass density, 313.15 K [kg/m3]	viscosity, 298.15 K [mPa·s]	viscosity, 303.15 K [mPa·s]	viscosity, 308.15 K [mPa·s]	viscosity, 313.15 K [mPa·s]
x1 = 0.0833	801.7	797.1	792.46	788.12	2.502	2.135	1.832	1.525
x1 = 0.161	800.91	796.26	791.63	787.2	2.081	1.791	1.571	1.359
x1 = 0.2402	800.19	795.56	790.81	786.44	1.749	1.533	1.355	1.206
x1 = 0.3498	799.4	794.77	789.93	785.56	1.428	1.284	1.143	1.018
x1 = 0.441	798.92	794.27	789.42	785.03	1.213	1.078	0.976	0.895
x1 = 0.5609	798.55	793.86	789.01	784.61	0.981	0.886	0.82	0.76
x1 = 0.6498	798.44	793.74	788.83	784.44	0.824	0.768	0.706	0.664
x1 = 0.7398	798.47	793.74	788.83	784.43	0.671	0.638	0.603	0.572
x1 = 0.8501	798.73	793.92	789.09	784.68	0.528	0.506	0.486	0.465
x1 = 0.9405	799.06	794.23	789.47	785.05	0.434	0.417	0.397	0.38
x1 = 1	799.48	794.63	789.9	785.52	0.381	0.368	0.352	0.339

CCCC(C)O (centres undefined) [pentan-2-ol] + CCC(C)=O
Settings	mass density, 298.15 K [kg/m3]	mass density, 303.15 K [kg/m3]	mass density, 308.15 K [kg/m3]	mass density, 313.15 K [kg/m3]	viscosity, 298.15 K [mPa·s]	viscosity, 303.15 K [mPa·s]	viscosity, 308.15 K [mPa·s]	viscosity, 313.15 K [mPa·s]
x2 = 0	805.41	801.21	796.64	792.51	3.478	2.801	2.335	1.993
x2 = 0.0852	804.2	799.84	795.37	791.21	2.516	2.204	1.894	1.662
x2 = 0.1643	803.1	798.76	794.25	790.05	2.008	1.786	1.581	1.429
x2 = 0.2456	802.1	797.76	793.2	788.94	1.592	1.439	1.316	1.217
x2 = 0.3511	801	796.62	791.97	787.7	1.183	1.103	1.038	0.992
x2 = 0.4422	800.24	795.77	791.11	786.83	0.92	0.891	0.86	0.832
x2 = 0.5632	799.6	794.94	790.27	785.94	0.702	0.693	0.683	0.673
x2 = 0.6508	799.3	794.56	789.87	785.47	0.62	0.608	0.595	0.583
x2 = 0.7416	799.14	794.34	789.63	785.18	0.569	0.548	0.528	0.507
x2 = 0.8512	799.2	794.26	789.56	785.05	0.48	0.463	0.445	0.427
x2 = 0.941	799.31	794.39	789.76	785.17	0.428	0.407	0.385	0.364
